Results from publication PMC12255297 (Nucleic Acids Research, 2025).

Tests used:
[1] = target: T1, C. botulinum SAM-AMP lyase (Clostridium botulinum, UniProt A5I3U9)
T1 construct: gene CBO2178

[2] = target: T1, C. botulinum SAM-AMP lyase; remark: listed apart in the source

T1 sequence (A5I3U9 1-124 limits assumed): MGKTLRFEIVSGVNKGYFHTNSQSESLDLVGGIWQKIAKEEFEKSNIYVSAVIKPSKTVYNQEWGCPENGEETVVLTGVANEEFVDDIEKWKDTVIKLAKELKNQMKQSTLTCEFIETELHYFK

Compound | electrophoretic mobility shift assay, native gel [1] | HPLC and LC-MS of cleavage to MTA-AMP and homoserine lactone [2]
CSC[C@H]1O[C@@H](n2cnc3c(N)ncnc32)[C@H](O)[C@@H]1OP(=O)(O)OC[C@H]1O[C@@H](n2cnc3c(N)ncnc32)[C@H](O)[C@@H]1O [MTA-AMP] | SAM-AMP lyase binds its product MTA-AMP, but not SAH-AMP or SFG-AMP | 
C[S+](CC[C@H](N)C(=O)O)C[C@H]1O[C@@H](n2cnc3c(N)ncnc32)[C@H](O)[C@@H]1OP(=O)(O)OC[C@H]1O[C@@H](n2cnc3c(N)ncnc32)[C@H](O)[C@@H]1O (some centres unmarked) [SAM-AMP] |  | HPLC analysis and mass spectrometry confirmed that SAM-AMP was degraded, generating the previously observed MTA-AMP product
